Our source for the IC50 and ED50 values is ChEMBL document CHEMBL1121986, “Spiro oxazolidinedione aldose reductase inhibitors” (J Med Chem, 1982).

Assay [1] addresses T1, Aldo-keto reductase family 1 member B1 (Bos taurus, UniProt P16116). The experiment in a line: Inhibitory concentration was determined against partially purified calf lens aldose reductase using glyceraldehyde as a substrate.
Assay [2] concerns Rattus norvegicus. Kind of assay: Dose required for reduction of sorbitol accumulation in the sciatic nerve in streptozotocin-diabetic rats in vivo. It is filed as functional.
The subject of assay [3] is Rattus norvegicus. The experiment in a line: Dose required for reduction of sorbitol accumulation in the sciatic nerve in streptozotocin-diabetic rats in vivo; Inactive. It is filed as functional, organism-based.
Assay [4] deals with T1, Aldo-keto reductase family 1 member B1. Kind of assay: Inhibitory concentration was determined against partially purified calf lens aldose reductase using glyceraldehyde as a substrate; 10e-6/10e-7.
For assay [5] the target is unchanged. Kind of assay: Inhibitory concentration was determined against partially purified calf lens aldose reductase using glyceraldehyde as a substrate; 10e-4/10e-5.
Assay [6] has the same target. Kind of assay: Inhibitory concentration was determined against partially purified calf lens aldose reductase using glyceraldehyde as a substrate; 10e-7/10e-8.
[7] abbreviates: Rattus norvegicus, Sciatic nerve, read-out: ED50.

The source made the active and inactive calls. The rule behind the calls is not given here.

The term IC50 denotes the concentration that gives 50% inhibition. A high value points to a need for much substance. A word on the ED50: it is the dose that gives a 50% effect, or the effect in half of the subjects. In turn, `O=C1NC(=O)C2(CCc3ccccc32)O1` (stereo not given) displayed an IC50 in assay [1] of 100 µM. Further, the ED50 with Rattus norvegicus [2] (setting [7]) is greater than 25 mg/kg. The molecule `O=C1NC(=O)C2(CCOc3ccccc32)O1` (stereo not given) came in with an IC50 in assay [1] of 100 µM.

`O=C1NC(=O)C2(CCCc3ccccc32)O1` (stereo not given): in the assay with Rattus norvegicus [3], the ED50 entry is “inactive”. For the same molecule, half-maximal inhibition in assay [1] (IC50) required 100 µM. In assay [1], `O=C1NC(=O)C2(CCSc3ccccc32)O1` (stereo not given) came in with an IC50 of 10 µM. Moreover, the ED50 in the assay on Rattus norvegicus [2] (setting [7]) was 25 mg/kg. For `O=C1NC(=O)C2(CCOc3ccc(Cl)cc32)O1` (stereo not given), the IC50 in assay [4] is 10 µM. Moreover, the ED50 in the assay on Rattus norvegicus [2] (setting [7]) is greater than 1.5 mg/kg. Molecule `O=C1NC(=O)C2(CCSc3ccc(F)cc32)O1` (stereo not given) showed an IC50 in assay [1] of 10 µM. For the same molecule, the ED50 in the assay on Rattus norvegicus [2] (setting [7]) amounted to 25 mg/kg. As for `O=C1NC(=O)C2(CCOc3ccc(F)cc32)O1` (stereo not given), half-maximal inhibition in assay [4] (IC50) required 10 µM. In addition, the ED50 with Rattus norvegicus [2] (setting [7]) was greater than 1.5 mg/kg. In the same order, the values of `O=C1NC(=O)C2(CCSc3ccc(Cl)cc32)O1` (stereo not given) are 10 µM and greater than 1.5 mg/kg. The molecule `O=C1N=C(O)OC12CCOc1c(Cl)cc(Cl)cc12` (single isomer, unassigned; (+)) showed a half-inhibitory concentration (IC50) in assay [1] of 100 µM. Same read-out and setting: then `O=C1N=C(O)OC12CCOc1ccc(Cl)cc12` (single isomer, unassigned; (-)), with 1 µM. For `O=C1NC(=O)C2(CCOc3c(Cl)cc(Cl)cc32)O1` (stereo in doubt; 23), the ED50 in the assay on Rattus norvegicus [2] was 1.5 mg/kg. `Cc1cc(Cl)cc2c1OCCC21OC(=O)NC1=O` (stereo not given): the midpoint of inhibition in assay [4], the IC50, lay at 10 µM. The ED50 with Rattus norvegicus [2] (setting [7]) was greater than 1.5 mg/kg. For the molecule `O=C1N=C(O)OC12CCOc1ccc(Cl)cc12` (single isomer, unassigned; (+)), 1000 µM corresponded to half-maximal inhibition in assay [5] (IC50). On to `O=C1NC(=O)C2(CCOc3ccc(Br)cc32)O1` (stereo not given), for which the IC50 in assay [1] is 1 µM. Moreover, the ED50 with Rattus norvegicus [2] (setting [7]) is greater than 1.5 mg/kg.

As to `O=C1NC(=O)C2(CCOc3c(Cl)cc(Cl)cc32)O1` (stereo in doubt; 14), the IC50 in assay [6] was found to be 1 µM. In the assay with Rattus norvegicus [2] (setting [7]), the ED50 is greater than 1.5 mg/kg.
